According to patent US11168079B2, “Alkene compounds as farnesoid x receptor modulators” (BRISTOL-MYERS SQUIBB COMPANY, priority 2017, dated 2021):

Key:
[1] = test system: Cyp7a1; assay: Acute mouse in vivo assay (PK/PD): Cyp7a1 gene expression in liver; details: for Cyp7a1 (fold change@ 6 h relative to Vehicle): Mouse PD
Description: (§1) Acute Mouse In Vivo Assay:
(§2) Male, C57BL6/NTac mice, weighing 25-28 g, are purchased from Taconic Labs (Hudson, N.Y.) and maintained on Teklad Global 18% Protein Rodent Diet (Harlan Laboratories). After 1 week acclimation, mice are sorted into groups based upon body weight. Mice are administered a single oral dose of vehicle or experimental compound. Systemic compound exposure is evaluated in plasma derived from blood collected via the submandibular vein at 1 hour post-dose, and at study termination (6 h). At study termination, the animals are euthanized and rapidly dissected. The medial lobe of the liver is divided, with one half being homogenized and analyzed for compound exposure, and the other half saved in RNAlater (Thermo-Fisher Scientific). The ileum is also dissected and preserved in RNAlater. Tissue samples in RNAlater are homogenized with MP Biomedicals' beads. RNA is extracted using the MagMax-96 Total RNA Isolation kit (Thermo-Fisher Scientific) according to the manufacturer's protocol. RNA Concentration is determined with the Nano-Drop 8000 Spectrophotometer (Thermo Fisher). […] Mouse genes analyzed include Nr0b2 (which encodes the small heterodimer partner, SHP), Abcb11 (which encodes the bile salt excretion pump, BSEP), Cyp7a1, & Cyp8b1 in liver, and Fgf15, Fabp6 (which encodes ileal bile acid binding protein, I-BABP), Slc51a (which encodes organic solute transporter alpha subunit, OSTA), and Slc51 b (which encodes organic solute transporter beta subunit, OSTB) in the ileum. The statistical significant changes in FGF15 gene expression are expressed as fold increase and CYP7A1 expression as a percent reduction relative to vehicle control. […]
(§3) Male, C57BL6/NTac mice, weighing 25-28 g, are purchased from Taconic Labs (Hudson, N.Y.) and maintained on Teklad Global 18% Protein Rodent Diet (Harlan Laboratories). […] Systemic compound exposure is evaluated in plasma derived from blood collected via the submandibular vein at 1 hour post-dose, and at study termination (6 h). […] RNA Concentration is determined with the Nano-Drop 8000 Spectrophotometer (Thermo Fisher). […]

[2] = test system: Fgf15; assay: Acute mouse in vivo assay (PK/PD): Fgf15 gene expression in ileum; details: for Fgf15 (fold change@ 6 h relative to Vehicle): Mouse PD
Description: as §1, §2, §3

[3] = target: T1, human FXR (Homo sapiens, UniProt Q96RI1); assay: transient human FXR/Gal4-luciferase reporter assay (HLE GAL-FXR); details: HEK293 cells
T1 sequence (Q96RI1 262-486 limits assumed): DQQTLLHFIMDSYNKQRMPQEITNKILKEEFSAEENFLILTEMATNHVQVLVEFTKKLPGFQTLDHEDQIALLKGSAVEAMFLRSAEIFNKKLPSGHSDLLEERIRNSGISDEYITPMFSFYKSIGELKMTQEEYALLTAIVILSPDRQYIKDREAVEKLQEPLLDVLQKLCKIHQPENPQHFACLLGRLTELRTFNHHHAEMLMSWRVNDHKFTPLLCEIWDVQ

[4] = FXR EC50 (nM), Gal4-hFXR fusion reporter, Table 1

| EC50 [3, 4] | Compound | other results |
| --- | --- | --- |
|  | O=C(O)c1cc(F)c2nc(N3CCC(/C=C/c4c(-c5c(Cl)cccc5Cl)noc4C4CC4)CC3)sc2c1 [Example 14] | Mouse in vivo Cyp7a1 ([1]; 30 mg/kg, @ 6 h, single oral dose, percent reduction relative to vehicle control): −96%; Mouse in vivo FgF15 ([2]; 30 mg/kg, @ 6 h, single oral dose, fold increase relative to vehicle control): 10 x |
| 2330 nM | O=C(O)c1ncc(N2CCC(/C=C/c3c(-c4c(Cl)cccc4Cl)noc3C3CC3)CC2)cn1 [Example 27] | Cyp7a1 (fold change@ 6 h relative to Vehicle) ([1]; dose 30 mg/kg): 0.10; Fgf15 (fold change@ 6 h relative to Vehicle) ([2]; dose 30 mg/kg): 2.8 |
| 47 nM | O=C(O)c1cc2ccc(N3CCC(/C=C/c4c(-c5c(Cl)cncc5Cl)noc4C4CC4)CC3)cc2cn1 [Example 101] | Cyp7a1 (fold change@ 6 h relative to Vehicle) ([1]; dose 3 mg/kg): 0.06; Fgf15 (fold change@ 6 h relative to Vehicle) ([2]; dose 3 mg/kg): 21 |
|  | COc1cc(C(=O)O)cc(-c2cnc(N3CC4C(/C=C/c5c(-c6c(Cl)cncc6Cl)noc5C5CC5)C4C3)s2)c1 (stereo not shown) [Example 216, (E)-3-(2-(6-(2-(5-cyclopropyl-3-(3,5-dichloropyridin-4-yl)isoxazol-4-yl)vinyl)-3-azabicyclo[3.1.0]hexan-3-yl)thiazol-5-yl)-5-methoxybenzoic acid] | EC50 ([3]; HLE GAL-FXR EC50, Gal4-hFXR fusion reporter): 202 nM |
| 1400 nM | O=C(O)c1cc(OC2CC2)c2cc(N3CC(/C=C/c4c(-c5ccccc5OC(F)(F)F)noc4C(F)(F)F)C3)ccc2n1 [Example 217] |  |
| 1600 nM | O=C(O)c1cccc(-c2nnc(N3CC4C(/C=C/c5c(-c6c(Cl)cncc6Cl)noc5C5CC5)C4C3)o2)c1 (stereo not shown) [Example 218] |  |
| 117 nM | COc1cc(C(=O)O)cc(-c2ccc(N3CC(/C=C/c4c(-c5c(Cl)cncc5Cl)noc4C4CC4)C3)cc2)c1 [Example 219] |  |
| 107 nM | O=C(O)c1cnn(-c2ccc(N3CC(/C=C/c4c(-c5c(Cl)cncc5Cl)noc4C4CC4)C3)cc2)c1 [Example 220] |  |
| 56 nM | COc1cc(C(=O)O)cc(-c2ccc(N3CC(/C=C/c4c(-c5ccccc5C(F)(F)F)noc4C4CC4)C3)cn2)c1 [Example 221] |  |
| 34 nM | COc1cc(C(=O)O)cc(-c2ccc(N3CC(/C=C/c4c(-c5ccccc5C(F)(F)F)noc4C4CC4)C3)nc2)c1 [Example 222] |  |
| 1400 nM | COc1cc(C(=O)O)cc(-c2nnc(N3CC4C(/C=C/c5c(-c6c(Cl)cncc6Cl)noc5C5CC5)C4C3)s2)c1 (stereo not shown) [Example 223] |  |
| 166 nM | O=C(O)c1cc(-c2ccc(N3CC(/C=C/c4c(-c5c(Cl)cncc5Cl)noc4C4CC4)C3)nc2)cc(C(F)(F)F)c1 [Example 224] |  |
| 6 nM | O=C(O)c1cc(-c2ccc(N3CC(/C=C/c4c(-c5ccccc5C(F)(F)F)noc4C4CC4)C3)nc2)cc(C(F)(F)F)c1 [Example 225] |  |
| 14 nM | O=C(O)c1cc(F)cc(-c2ccc(N3CC(/C=C/c4c(-c5ccccc5C(F)(F)F)noc4C4CC4)C3)nc2)c1 [Example 226] |  |
